Test results published in BindingDB's records for doi:10.3109/14756366.2012.742517 (Seoul National University, 2014).

target: T1, Pancreatic triacylglycerol lipase (Sus scrofa, UniProt P00591); assay: In Vitro Pancreatic Lipase Assay; conditions: pH 7.4; 37 °C
T1 sequence (P00591 whole entry): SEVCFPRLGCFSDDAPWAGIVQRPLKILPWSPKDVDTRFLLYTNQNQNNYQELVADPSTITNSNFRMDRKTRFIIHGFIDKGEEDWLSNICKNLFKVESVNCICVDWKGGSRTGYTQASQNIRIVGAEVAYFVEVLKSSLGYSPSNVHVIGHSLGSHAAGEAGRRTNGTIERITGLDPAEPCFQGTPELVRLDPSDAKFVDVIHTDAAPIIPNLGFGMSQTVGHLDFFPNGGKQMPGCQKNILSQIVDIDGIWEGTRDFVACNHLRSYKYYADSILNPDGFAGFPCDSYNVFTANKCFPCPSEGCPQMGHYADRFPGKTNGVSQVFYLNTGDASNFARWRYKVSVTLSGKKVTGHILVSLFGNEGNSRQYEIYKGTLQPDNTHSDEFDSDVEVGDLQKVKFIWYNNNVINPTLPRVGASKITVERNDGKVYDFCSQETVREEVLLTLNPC
Experimental: The mixedsolution that composed of […] of 0.1mM 4-MU oleate, […] of the above-mentioned buffer and […] of test samples was prepared before adding lipase. The enzymatic reaction was started by adding 0.05mL of 1 U/mL pancreatic lipase and incubation was carried out for 20 min at 37 °C. The amount of 4-methylumbelliferon released by the enzyme was monitored at an emission of 450 nm and excitation wavelength of 320 nm using a fluorescence spectrophotometer.

SMILES	IC50 [µM]	Ki [µM]
COc1c(O)cccc1CCc1cc(O)cc(O)c1 [3,3',5-Trihydroxy-2'-methoxybibenzyl (3)]	8.77	1.82
COc1cc(O)c2c(c1)CCc1cc(O)ccc1-2 [2,5-Dihydroxy-7-methoxy-9,10-dihydrophenanthrene (14)]	25.1	4.96
O=C(/C=C/C=C/c1ccc(O)cc1)/C=C/c1ccc(O)cc1 [(1E,4E,6E)-1,7-bis(4-hydroxyphenyl)-1,4,6-heptatrien-3-one (19)]	16.4	3.34
COc1cc(CCc2ccccc2O)cc(O)c1OC [3,4-Dimethoxy-2',5-dihydroxybibenzyl (9)]	> 50	–
COc1cc(O)cc(CCc2cccc(O)c2)c1 [Batatasin III (4)]	32.3	6.79
COc1cc(CCc2ccccc2O)cc(OC)c1 [3,5-Dimethoxy-2'hydroxybibenzyl (7)]	44.1	9.28
O=C(/C=C/c1ccc(O)cc1)OCCc1ccc(O)cc1	34.8	7.49
COc1cc(CC[C@@H](O)C[C@H](O)CCc2ccc(O)c(OC)c2)ccc1O [(3R,5R)-1,7-bis(4-hydroxy-3-methoxyphenyl)-3,5-heptanediol]	> 50	–
COc1cc(/C=C/C=C/C(=O)CCc2ccc(O)cc2)ccc1O [(4E,6E)-7-(4-hydroxy-3-methoxyphenyl)-1-(4-hydroxyphenyl)-4,6-heptadien-3-one (21)]	11.1	2.17
COc1cc(O)cc(CCc2ccccc2O)c1 [2-(3-hydroxy-5-methoxyphenethyl)phenol]	30.1	6.28
O=C(/C=C/C=C/c1ccc(O)cc1)CCc1ccc(O)cc1 [(4E,6E)-1,7-bis(4-hydroxyphenyl)-4,6-heptadien-3-one (20)]	9.12	1.92
Oc1cc(O)c2c(c1)-c1ccccc1CCO2 [9,10-Dihydro-dibenzoxepin-2,4-diol (15)]	> 50	–
Oc1ccc(CC[C@@H](O)C[C@H](O)CCc2ccc(O)cc2)cc1 [(3R,5R)-3,5-dihydroxy-1,7-bis(4-hydroxyphenyl)-3,5-heptanediol (22)]	> 50	–
COc1cc2c(ccc3cc(O)cc(OC)c32)cc1O [3,5-Dimethoxy-2,7-phenanthrenediol (11)]	12.7	2.67
COc1cc(/C=C/C(=O)OCCc2ccc(O)cc2)ccc1O [p-hydroxyphenethyl trans-ferulate]	> 50	–
COc1cc(OC)c2c(ccc3cc(OC)c(O)cc32)c1 [Batatasin I (12)]	> 50	–
COc1cc(CCc2cc(O)cc(O)c2)ccc1O [Tristin (1)]	13.5	2.75
COc1cc(CCc2ccccc2O)cc(OC)c1OC [Batatasin V (10)]	45.7	9.66
COc1cc(O)cc2c1OCCc1ccccc1-2 [9,10-Dihydro-4-methoxy-dibenzoxepin-2-ol (16)]	> 50	–
COc1cc(CCc2ccccc2)cc(OC)c1 [3,5-Dimethoxybibenzyl (8)]	> 50	–
COc1cc(O)cc2c1-c1c(O)cccc1CC2 [Hircinol (13)]	40.6	8.57
Oc1cc(O)cc(CCc2ccccc2O)c1 [2',3,5-Trihydroxybibenzyl (2)]	29.2	6.45
